From PubChem BioAssay AID977613 (Broad Institute, 2014)
Calls of active or inactive are those of the source. How the calls were made is not given here.

System: Broad 7084-01 inhibitor HTS, set 2
Experiment: inhibitors in Broad screen 7084-01, set 2 (AID 977613);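 further: host cells are infected with parasite promastigotes that become internalized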

Row | SMILES | active concentration
1 | CN1C[C@H](O)COC[C@H]2O[C@H](CC(=O)NC3CCCC3)CC[C@@H]21 | > 10 µM (inactive)
2 | Cn1cnc(S(=O)(=O)N2C[C@@H](O)COC[C@@H]3O[C@@H](CC(=O)NC4CCCC4)CC[C@H]32)c1 | > 10 µM (inactive)
3 | COc1ccc(-c2ccccc2[C@@H]2[C@@H](C#N)N(C(=O)NC3CCCCC3)[C@H]2CO)cc1 | > 10 µM (inactive)
4 | CC(C)NC(=O)N1CC2(C1)[C@H](c1ccccc1)[C@H](CO)N2CCC(F)(F)F | > 10 µM (inactive)
5 | COc1ccc(CN2[C@H](CO)[C@H]3c4ccccc4N(C(=O)Nc4ccc(F)cc4)C[C@H]32)cc1 | > 10 µM (inactive)
6 | O=S(=O)(c1ccc(F)cc1)N1C[C@@H]2[C@H](c3ccccc31)[C@H](CO)N2Cc1ccc2c(c1)OCO2 | > 10 µM (inactive)
7 | O=C(NCC1CCCCC1)[C@@H]1[C@@H](CO)[C@@H]2Cn3c(ccc(-c4cncnc4)c3=O)[C@H]1N2 | > 10 µM (inactive)
8 | COc1ccccc1CN1[C@@H](CO)[C@@H]2c3ccccc3N(C(=O)c3cccnc3)C[C@@H]21 | > 10 µM (inactive)
9 | COc1ccccc1NC(=O)N1CC(=O)N2[C@H](CO)[C@H](c3ccc(-c4cccc(C)c4)cc3)[C@@H]2C1 | > 10 µM (inactive)
10 | O=C(C[C@@H]1CC[C@H]2[C@@H](COC[C@H](O)CN2Cc2ccccc2)O1)NCCc1ccccc1 | > 10 µM (inactive)
11 | CCC(=O)N1C[C@@H]2[C@H](c3ccccc31)[C@H](CO)N2C(=O)CC | > 10 µM (inactive)
12 | O=C(C[C@H]1CC[C@H]2[C@@H](COC[C@@H](O)CN2CC2CC2)O1)NCc1ccc(Cl)cc1 | > 10 µM (inactive)
13 | CN1CCCCN2[C@H](CO)[C@@H](c3ccc(-c4ccc(F)cc4)cc3)[C@@H]2C1 | > 10 µM (inactive)
14 | O=C(C[C@@H]1CC[C@@H]2[C@H](COC[C@@H](O)CN2C(=O)Nc2ccc(Cl)c(Cl)c2)O1)NCc1ccc(Cl)cc1 | > 10 µM (inactive)
15 | N#C[C@H]1[C@H](c2ccccc2-c2ccc(F)cc2)[C@@H](CO)N1C(=O)Cc1cccnc1 | > 10 µM (inactive)
16 | O=C(C[C@@H]1CC[C@H]2[C@@H](COC[C@H](O)CN2S(=O)(=O)c2ccccc2)O1)Nc1ccccc1 | > 10 µM (inactive)
17 | Cc1noc(C)c1NC(=O)N1C[C@H](O)COC[C@H]2O[C@@H](CC(=O)NCC3CCCCC3)CC[C@@H]21 | > 10 µM (inactive)
18 | COC(=O)C[C@@H]1CC[C@@H]2[C@@H](COc3ccc(NC(=O)c4cccc(Cl)c4)cc3C(=O)N2C)O1 | > 10 µM (inactive)
19 | COCC(=O)N1[C@H](C#N)[C@@H](c2ccccc2-c2ccccc2F)[C@@H]1CO | > 10 µM (inactive)

Row | SMILES | active concentration
20 | CN1C[C@@H]2[C@H](c3ccccc31)[C@@H](CO)N2C(=O)Nc1cccc(F)c1 | > 10 µM (inactive)
21 | CN1C(=O)c2cc(NC(=O)Cc3cccs3)ccc2OC[C@@H]2O[C@@H](CC(=O)N[C@@H]3CCN(Cc4ccccc4)C3)CC[C@H]21 | > 10 µM (inactive)
22 | CN1c2ccc(-c3ccccc3F)cc2[C@@H]2[C@@H](CCN2C(=O)Cc2ccccn2)[C@@H]1CO | > 10 µM (inactive)
23 | N#C[C@@H]1[C@H](c2ccccc2C2=CCCCC2)[C@H](CO)N1C(=O)Nc1ccccc1F | > 10 µM (inactive)
24 | O=C(O)[C@H]1[C@H](CO)[C@H]2Cn3c(ccc(-c4ccc(F)cc4)c3=O)[C@@H]1N2CC1CCCCC1 | > 10 µM (inactive)
25 | CC1C=NC(S(=O)(=O)N2CC[C@H]3[C@@H](CO)N(C)c4ccc(-c5ccccc5F)cc4[C@H]32)=N1 (some centres not stated) | > 10 µM (inactive)
26 | O=C(C1CCOCC1)N1CC2(C1)[C@H](c1ccccc1)[C@H](CO)N2CCC(F)(F)F | > 10 µM (inactive)
27 | COc1ccc2c3c([nH]c2c1)[C@H](CO)N(C(=O)C1CCOCC1)CC31CN(C(=O)NC(C)C)C1 | > 10 µM (inactive)
28 | C/C=C/c1ccc([C@@H]2[C@H](CO)N3CCCCN(S(=O)(=O)c4ccc(OC)cc4)C[C@@H]23)cc1 | > 10 µM (inactive)
29 | CN(C)CC(=O)N1CCCCN2[C@H](C1)[C@@H](c1ccc(/C=C/c3ccccc3)cc1)[C@@H]2CO | > 10 µM (inactive)
30 | CCS(=O)(=O)N1CC(=O)N2[C@H](C1)[C@@H](c1ccc(C#CC3CCCCC3)cc1)[C@@H]2CO | > 10 µM (inactive)
31 | COc1ccc2c3c([nH]c2c1)[C@@H](CO)N(C(=O)C1CCC1)CC31CN(C(=O)c2ccccn2)C1 | > 10 µM (inactive)
32 | COC(=O)[C@@H]1[C@@H](CO)[C@@H]2Cn3c(cccc3=O)[C@H]1N2Cc1nccs1 | > 10 µM (inactive)
33 | CCS(=O)(=O)N1CC2(CN(Cc3cc(F)ccc3F)[C@H](CO)c3c2c2ccc(OC)cc2n3C)C1 | > 10 µM (inactive)
34 | O=C(C[C@H]1CC[C@H]2[C@@H](COC[C@H](O)CN2Cc2cccc(F)c2)O1)NCc1cccc(F)c1 | > 10 µM (inactive)
35 | COc1ccc2c3c([nH]c2c1)[C@H](CO)N(S(=O)(=O)c1ccc(C)cc1)CC31CCN(Cc2nccs2)CC1 | > 10 µM (inactive)
36 | COc1ccccc1C(=O)N1C[C@H]2[C@@H](c3ccccc31)[C@@H](CO)N2C(=O)Cc1cccnc1 | > 10 µM (inactive)
37 | O=C([C@@H]1[C@@H](CO)[C@@H]2Cn3c(ccc(C4=CCCC4)c3=O)[C@H]1N2C(=O)c1ccncc1)N1CCOCC1 | > 10 µM (inactive)
38 | Cc1ccc(-c2ccccc2[C@H]2[C@@H](C#N)N(c3ncc(-c4ccccc4)s3)[C@@H]2CO)cc1 | > 10 µM (inactive)

Row | SMILES | active concentration
39 | COc1cccc(C(=O)Nc2ccc3c(c2)C(=O)N(C)[C@H]2CC[C@@H](CC(=O)NCCCN4CCOCC4)O[C@@H]2CO3)c1 | > 10 µM (inactive)
40 | COCC(=O)N1[C@H](C#N)[C@@H](c2ccccc2-c2cccc(C)c2)[C@@H]1CO | > 10 µM (inactive)
41 | CCN1[C@@H]2c3ccc(-c4ccccc4F)c(=O)n3C[C@H]1[C@H](CO)[C@H]2C(=O)NCc1ccc(F)cc1 | > 10 µM (inactive)
42 | O=C(Cc1ccncc1)N1CC[C@@H]2[C@H](CO)Nc3ccc(-c4ccccc4F)cc3[C@@H]21 | > 10 µM (inactive)
43 | O=C1CNC[C@H]2[C@@H](c3ccc(C4=CCCC4)cc3)[C@@H](CO)N12 | > 10 µM (inactive)
44 | O=C(C1CCCCC1)N1CC2(C1)[C@@H](c1ccccc1)[C@H](CO)N2C(=O)c1cccnc1 | > 10 µM (inactive)
45 | O=C(C[C@H]1CC[C@@H]2[C@H](COC[C@H](O)CN2S(=O)(=O)c2ccccc2)O1)Nc1ccccc1 | > 10 µM (inactive)
46 | COc1ccc2c3c([nH]c2c1)[C@@H](CO)N(S(C)(=O)=O)CC31CCN(C(=O)Nc2ccccc2)CC1 | > 10 µM (inactive)
47 | C/C=C/c1ccc([C@@H]2[C@H](CO)N(C(=O)CN(C)C)C23CN(C(=O)C2CCC2)C3)cc1 | > 10 µM (inactive)
48 | O=C(C[C@@H]1CC[C@H]2[C@@H](COC[C@H](O)CN2C(=O)c2ccncc2)O1)NCc1ccc(-c2ccccc2)cc1 | > 10 µM (inactive)
49 | O=C(C[C@H]1CC[C@H]2[C@@H](COC[C@H](O)CN2C(=O)Nc2ccc(Cl)c(Cl)c2)O1)NCc1ccc(Cl)cc1 | > 10 µM (inactive)
50 | O=C(c1cccc(F)c1)N1CCCCN2[C@H](C1)[C@@H](c1ccc(C#CC3(O)CCCC3)cc1)[C@@H]2CO | > 10 µM (inactive)
51 | O=C(c1ccccc1F)N1CC[C@H]2[C@H](CO)Nc3ccc(Br)cc3[C@H]21 | > 10 µM (inactive)
52 | O=C(Nc1ccccc1F)N1CC(=O)N2[C@H](C1)[C@H](c1ccc(-c3cccnc3)cc1)[C@@H]2CO | > 10 µM (inactive)
53 | O=C(Cc1ccccc1)N1C[C@@H]2[C@H](c3ccccc31)[C@@H](CO)N2C(=O)c1cccc(F)c1 | > 10 µM (inactive)
54 | O=C(C[C@@H]1CC[C@H]2[C@@H](COC[C@@H](O)CN2C(=O)Nc2ccc(C(F)(F)F)cc2)O1)NCC1CC1 | > 10 µM (inactive)
55 | CCC(=O)N1[C@@H]2Cn3c(ccc(-c4ccncc4)c3=O)[C@H]1[C@@H](C(=O)NC1Cc3ccccc3C1)[C@@H]2CO | > 10 µM (inactive)
56 | CC(C)NC(=O)Nc1ccc2c(c1)C(=O)N(C)[C@@H]1CC[C@H](CC(=O)NCc3ccc(F)cc3)O[C@@H]1CO2 | > 10 µM (inactive)
57 | O=C(C1CCCCC1)N1CC(=O)N2[C@H](CO)[C@H](c3ccc(-c4ccccc4F)cc3)[C@@H]2C1 | > 10 µM (inactive)
